Source: patent publication US20240270821A1, “GIP/GLP1/GCG TRI-RECEPTOR AGONISTS AND USES THEREOF” (priority 2023, published 2024)
Starred links: 1 amine or outer side, 2 acyl side, 3 side chain; linkers in the order of their positions; H or OH if unused. Non-standard residues stand in square brackets, D forms with d. Residues, ends and D or L forms follow the SMILES beside them. Groups on a side chain read outwards from the residue. *: point of attachment. C18 diacid = O=C(O)CCCCCCCCCCCCCCCCC(=O)*; αMePhe(2-F) = C[C@](N)(Cc1ccccc1F)C(=O)O; γGlu = O=C(O)[C@H](CCC(=O)[*:2])N[*:1]; αMe4Pal = C[C@](N)(Cc1ccncc1)C(=O)O; αMeY = C[C@](N)(Cc1ccc(O)cc1)C(=O)O; 4Pal = N[C@@H](Cc1ccncc1)C(=O)O; αMeL = CC(C)C[C@](C)(N)C(=O)O; αMeS = C[C@](N)(CO)C(=O)O; Orn = NCCC[C@H](N)C(=O)O; AEEA = NCCOCCOCC(=O)O; Aib = CC(C)(N)C(=O)O

What was measured:
[1] = Pepsin stability assay in simulated gastric fluid; format: in vitro ADME; details: pH 1.2, % Intact (SD)
Experimental: A pepsin stability assay is utilized to determine the relative stability of Example polypeptides in a simulated gastric proteolytic environment. […] The relative amount of intact peptide is quantified by mass spectrometry (MS). […] The examples were dissolved in 50 mM Tris buffer pH 8.0 at a concentration of 10 mg/mL as a stock solution. Pepsin A was reconstituted in SGF at 10 mg/mL. […] The example peptide and pepsin solutions were then incubated at 37° C. in a shaking incubator set at 100 rpm. Samples (25 μL) were withdrawn at different time intervals and quenched with 100 mM ammonium bicarbonate pH 9 (50 μL) to stop proteolytic activity. All samples were centrifuged, and the supernatants were analyzed by LC/MS to determine the remaining intact peptide.

[2] = molecular target: T1, hGLP-1R (Homo sapiens, UniProt P43220); assay: Functional cAMP activation in the presence of 0.1% casein (no HSA); format: cell-based; details: read-out: Relative cAMP EC50, hGLP-1R;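 further: intracellular cAMP rise after 30 min at 37 °C read by HTRF, normalized between buffer only (0%) and maximal control ligand (100%), four-parameter variable-slope fit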
[3] = molecular target: T2, hGIPR (Homo sapiens, UniProt P48546); assay: Functional cAMP activity in the presence of 1% HSA; format: cell-based; details: read-out: cAMP Rel EC50, hGIPR
T2 sequence (P48546 22-466): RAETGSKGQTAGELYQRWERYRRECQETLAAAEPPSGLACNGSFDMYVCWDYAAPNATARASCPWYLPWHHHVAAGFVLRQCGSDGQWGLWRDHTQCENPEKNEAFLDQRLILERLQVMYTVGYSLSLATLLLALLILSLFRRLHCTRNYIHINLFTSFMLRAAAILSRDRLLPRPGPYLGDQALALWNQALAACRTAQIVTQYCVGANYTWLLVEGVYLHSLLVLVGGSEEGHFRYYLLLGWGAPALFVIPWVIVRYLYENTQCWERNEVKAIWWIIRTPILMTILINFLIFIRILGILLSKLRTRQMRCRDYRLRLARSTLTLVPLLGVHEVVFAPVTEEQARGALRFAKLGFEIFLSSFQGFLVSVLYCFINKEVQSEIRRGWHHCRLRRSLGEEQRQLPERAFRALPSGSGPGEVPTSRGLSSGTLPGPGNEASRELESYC

[4] = molecular target: human GcgR (Homo sapiens, UniProt P47871); assay: Functional cAMP activity in the presence of 1% HSA; format: cell-based; details: read-out: cAMP Rel EC50, hGcgR
[5] = molecular target: hGcgR (Homo sapiens, UniProt P47871); assay: Functional cAMP activation in the presence of 0.1% casein (no HSA); format: cell-based; details: read-out: Relative cAMP EC50, hGcgR;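 further: intracellular cAMP rise after 30 min at 37 °C, read by HTRF against a cAMP standard curve, scaled from buffer only (0%) to maximal control ligand response (100%)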
[6] = molecular target: T2, hGIPR; assay: as above; format: cell-based; details: read-out: Relative cAMP EC50, hGIPR
[7] = molecular target: T1, hGLP-1R; assay: Functional cAMP activity in the presence of 1% HSA; format: cell-based; details: read-out: cAMP Rel EC50, hGLP-1R
[8] = Body weight in diet-induced obese C57BL/6 mice; format: in vivo; details: 10 nmol/kg SC QD, 7 days, percent of starting weight, DIO mice, mean ± SEM n=5
Experimental: To investigate the effect of the polypeptides as described herein on weight loss, exemplary polypeptides are dosed to C57BL/6 diet-induced obese (DIO) mice. Specifically, DIO male C57BL/6 mice (Taconic, Germantown, NY) maintained on a calorie-rich diet are used in the following studies. Mice are individually housed in a temperature-controlled (24° C.) facility with 12-hour light/dark cycle (lights on 22:00) and free access to food (TD95217) and water. After a minimum of 2 weeks acclimation to the facility, the mice are randomized according to their body weight, so each experimental group of animals would have similar starting body weight. The body weights range from 41 to 50 g. All groups contain 5 mice. […] Treatments are administered by subcutaneous (SC) injection (10 mL/kg) to ad libitum fed DIO mice 30 to 90 minutes prior to the onset of the dark cycle either once daily (QD) or once every 3 days (Q3D) for 9-16 days. Body weight and food intake are measured daily throughout the study. Body weight is presented as percent of the starting weight. […] Data are presented as mean±SEM of 5 animals per group in Table 7 below. Statistical analysis is performed using repeated measures ANOVA, followed by Dunnett's method comparison test.

[9] = tested on: Intestinal organoid from Göttingen minipig jejunum tissue, 2D monolayer; assay: Cell based in vitro permeability (Papp) assay; format: in vitro ADME
How it was run: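 2D monolayers derived from Göttingen minipig jejunal organoids on transwell inserts. Basal samples collected at 20 min in the presence of C10. Peptide in apical and basal compartments quantified by LC/MS to give Papp.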
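Wherever Relative cAMP EC50, hGIPR is given: intracellular cAMP rise after 30 min at 37 °C read by HTRF against a standard curve, scaled between buffer alone (0%) and top control ligand concentration (100%), four-parameter fit.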

Sequence of human GcgR (P47871 26-477): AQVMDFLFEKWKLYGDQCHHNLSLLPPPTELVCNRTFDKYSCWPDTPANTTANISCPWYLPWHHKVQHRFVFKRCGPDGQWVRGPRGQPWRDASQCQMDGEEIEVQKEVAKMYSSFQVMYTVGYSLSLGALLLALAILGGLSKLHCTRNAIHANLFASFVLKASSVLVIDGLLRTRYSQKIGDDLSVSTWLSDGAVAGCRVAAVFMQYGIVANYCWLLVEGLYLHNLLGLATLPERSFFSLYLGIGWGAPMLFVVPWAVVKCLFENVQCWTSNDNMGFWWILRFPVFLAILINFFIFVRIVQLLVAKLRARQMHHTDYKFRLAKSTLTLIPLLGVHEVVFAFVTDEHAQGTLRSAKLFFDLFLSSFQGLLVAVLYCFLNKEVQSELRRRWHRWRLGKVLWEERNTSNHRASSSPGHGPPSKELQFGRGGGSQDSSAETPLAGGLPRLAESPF
Sequence of hGcgR (P47871 26-477): as above
T1 sequence (P43220 24-463): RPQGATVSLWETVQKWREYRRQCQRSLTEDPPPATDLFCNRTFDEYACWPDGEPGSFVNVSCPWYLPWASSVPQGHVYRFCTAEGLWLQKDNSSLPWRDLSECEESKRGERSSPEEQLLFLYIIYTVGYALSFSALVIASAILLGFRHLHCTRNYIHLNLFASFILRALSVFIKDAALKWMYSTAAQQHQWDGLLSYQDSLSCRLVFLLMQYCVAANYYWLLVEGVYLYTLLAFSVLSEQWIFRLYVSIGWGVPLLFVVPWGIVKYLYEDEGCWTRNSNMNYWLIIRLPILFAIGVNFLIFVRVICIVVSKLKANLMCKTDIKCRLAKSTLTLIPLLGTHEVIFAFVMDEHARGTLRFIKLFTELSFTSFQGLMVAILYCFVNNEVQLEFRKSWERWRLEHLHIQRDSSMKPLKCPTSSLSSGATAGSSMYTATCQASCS

Compound | remaining at 0.25 h, 0.4 mg/mL [1] [%] | remaining at 0.5 h, 0.4 mg/mL [1] [%] | remaining at 1 h, 0.4 mg/mL [1] [%] | EC50 [2] [nM] | EC50 [3] [nM] | EC50 [4] [nM] | EC50 [5] [nM] | EC50 [6] [nM] | EC50 [7] [nM] | Body weight (%) [8] [%] | Relative Papp (Compared to internal standard) [9]
CC[C@H](C)[C@H](NC(=O)[C@H](CC(C)C)NC(=O)[C@](C)(Cc1ccc(O)cc1)NC(=O)[C@@H](CCC(=O)O)NC(=O)[C@@H](NC(=O)[C@H](Cc1ccccc1)NC(=O)[C@@H](NC(=O)C(C)(C)NC(=O)[C@H](CCC(N)=O)NC(=O)[C@H](C)NC(=O)[C@H](CCCCNC(=O)COCCOCCNC(=O)CC[C@H](NC(=O)CCCCCCCCCCCCCCCCC(=O)O)C(=O)O)NC(=O)[C@H](CCCN)NC(=O)[C@H](CC(=O)O)NC(=O)[C@H](CC(C)C)NC(=O)[C@](C)(CC(C)C)NC(=O)[C@@H](NC(=O)[C@](C)(CO)NC(=O)[C@H](Cc1ccncc1)NC(=O)[C@H](CC(=O)O)NC(=O)[C@H](CO)NC(=O)[C@@H](NC(=O)[C@](C)(Cc1ccccc1F)NC(=O)[C@@H](NC(=O)CNC(=O)[C@H](CCC(N)=O)NC(=O)C(C)(C)NC(=O)[C@@H](N)Cc1ccc(O)cc1)[C@@H](C)O)[C@@H](C)O)[C@@H](C)CC)[C@@H](C)O)[C@@H](C)CC)C(=O)N[C@@H](CCC(=O)O)C(=O)NCC(=O)NCC(=O)N1CCC[C@H]1C(=O)N[C@@H](CO)C(=O)N[C@@H](CO)C(=O)NCC(=O)N[C@@H](CCC(=O)O)C(=O)N1CCC[C@H]1C(=O)N1CCC[C@H]1C(=O)N1CCC[C@H]1C(=O)N[C@@H](CCC(=O)O)C(N)=O [Example 457] (H-Y[Aib]QGT[αMePhe(2-F)]TSD[4Pal][αMeS]I[αMeL]LD[Orn]K([AEEA-γGlu-C18 diacid])AQ[Aib]TFI[dE][αMeY]LIEGGPSSGEPPPE-NH2) | 78.8 | 68.9 | 60.1 | 0.226 | 0.881 | 333 | 2.86 | 0.00918 | 11.7 | – | –
CC[C@H](C)[C@H](NC(=O)[C@H](CC(C)C)NC(=O)[C@](C)(Cc1ccc(O)cc1)NC(=O)[C@@H](CCC(=O)O)NC(=O)[C@@H](NC(=O)[C@H](Cc1ccccc1)NC(=O)[C@H](CCC(=O)O)NC(=O)[C@](C)(Cc1ccncc1)NC(=O)[C@H](CCC(N)=O)NC(=O)[C@H](C)NC(=O)[C@H](CCCCNC(=O)CC[C@H](NC(=O)CC[C@H](NC(=O)CCCCCCCCCCCCCCCCC(=O)O)C(=O)O)C(=O)O)NC(=O)[C@H](CCCN)NC(=O)[C@H](CC(=O)O)NC(=O)[C@H](CC(C)C)NC(=O)[C@](C)(CC(C)C)NC(=O)[C@@H](NC(=O)[C@](C)(CO)NC(=O)[C@H](Cc1ccncc1)NC(=O)[C@H](CC(=O)O)NC(=O)[C@H](CO)NC(=O)[C@@H](NC(=O)[C@](C)(Cc1ccccc1F)NC(=O)[C@@H](NC(=O)CNC(=O)[C@H](CCC(N)=O)NC(=O)C(C)(C)NC(=O)[C@@H](N)Cc1ccc(O)cc1)[C@@H](C)O)[C@@H](C)O)[C@@H](C)CC)[C@@H](C)CC)C(=O)N[C@@H](CCC(=O)O)C(=O)NCC(=O)NCC(=O)N1CCC[C@H]1C(=O)N[C@@H](CO)C(=O)N[C@@H](CO)C(=O)NCC(=O)N[C@@H](C)C(=O)N1CCC[C@H]1C(=O)N1CCC[C@H]1C(=O)N1CCC[C@H]1C(=O)N[C@@H](CO)C(=O)NCC(=O)N[C@@H](CO)C(N)=O [Example 700] | 89.9 | 106 | 98.9 | 0.245 | 0.397 | 132 | 1.31 | 0.00758 | 20 | 75.9 ± 3.77 | 0.29
H-Y[Aib]QGT[αMePhe(2-F)]TSD[4Pal]SI[αMeL]LD[Orn]K([AEEA-γGlu-C18 diacid])AQ[αMe4Pal][Orn]FIE[αMeY]LIEGGPSSGEPPPEGT-NH2 [Example 505] | 91.6 | 78.9 | 53.5 | 0.205 | 2.1 | 92 | 0.445 | 0.00707 | 39 | – | –
H-Y[Aib]QGT[αMePhe(2-F)]TSD[4Pal]SI[αMeL]LD[Orn]K([AEEA-γGlu-C18 diacid])AQ[αMe4Pal][Orn]FI[dE]YLIEGGPSSGEPPPEGT-NH2 [Example 500] | 10.6 | 1 | 0 | 0.623 | 3.9 | 494 | 4.04 | 0.0375 | 50.3 | – | –
H-Y[Aib]QGT[αMePhe(2-F)]TSD[4Pal][αMeS]I[αMeL]LD[Orn]K([AEEA-γGlu-C18 diacid])AQ[αMe4Pal]EFI[dE][αMeY]LIEGGPSSGAPPPSGTGE-NH2 [Example 714] | 99.2 | 102 | 96.9 | 0.289 | 0.754 | 197 | 1.76 | 0.00764 | 33.2 | – | –
H-Y[Aib]QGT[αMePhe(2-F)]TSD[4Pal][αMeS]I[αMeL]LD[Orn]K([AEEA-γGlu-C18 diacid])AQ[αMe4Pal]EFI[dE][αMeY]LIEGGPSSGEPPPSGGGE-NH2 [Example 742] | 100 | 113 | 103 | 0.266 | 0.857 | 203 | 1.25 | 0.00688 | 33.3 | – | –
H-Y[Aib]QGT[αMePhe(2-F)]TSD[4Pal][αMeS]I[αMeL]LD[Orn]K([AEEA-γGlu-C18 diacid])AQ[αMe4Pal]EFI[dE][αMeY]LIEGGPSSGEPPPSGTGE-NH2 [Example 711] | 95 | 91.6 | 91.9 | 0.355 | 0.786 | 197 | 1.29 | 0.00861 | 35.2 | – | –
H-Y[Aib]QGT[αMePhe(2-F)]TSD[4Pal][αMeS]I[αMeL]LD[Orn]K([AEEA-γGlu-C18 diacid])AQ[αMe4Pal]EFI[dE][αMeY]LVEGGPSSGEPPPSGS-NH2 [Example 733] | 109 | 107 | 110 | 0.293 | 1.15 | 207 | 1.6 | 0.00894 | 34.3 | – | –
H-Y[Aib]QGT[αMePhe(2-F)]TSD[4Pal][αMeS]I[αMeL]LD[Orn]K([γGlu-γGlu-C18 diacid])AQ[αMe4Pal]EFI[dE][αMeY]LIEGGPSSGAPPPSGTGE-NH2 [Example 718] | 103 | 101 | – | 0.214 | 0.531 | 144 | 1.2 | 0.00706 | 23.2 | – | –
H-Y[Aib]QGT[αMePhe(2-F)]TSD[4Pal][αMeS]I[αMeL]LD[Orn]K([γGlu-γGlu-C18 diacid])AQ[αMe4Pal]EFI[dE][αMeY]LVEGGPSSGAPPPSGS-NH2 [Example 696] | 102 | 107 | – | 0.233 | 0.53 | 173 | 1.75 | 0.00688 | 19.1 | – | 0.77
